2 molecules from patent US20080138390A1, “Transdermal Delivery System For Use With Basic Permeation Enhancers” (priority 2004, published 2008) can be followed below.

Series [1] in a line: In vitro skin permeation of diclofenac sodium from transdermal systems, Franz diffusion cells. It counts as in vitro ADME, human. To be noted: for cumulative amount of diclofenac that permeated through the skin: human cadaver skin, 32° C., 24-hour study.
Series [2] is described as follows: In vitro skin permeation of testosterone from transdermal systems, Franz diffusion cells. To be noted: for cumulative amount of testosterone that permeated through the skin: human cadaver skin, receiver 30% NMP.
Experimental: An in vitro skin permeation study was conducted using two testosterone transdermal delivery systems.
The backing/active agent-in-adhesive film was then pressed onto the skin with the adhesive side facing the stratum corneum. […] Three diffusion cells were used for each formulation. The receiver solution was 30% N-methyl pyrrolidone (NMP) in 70% DI H2O (v/v). The entire receiver solution was collected and replaced with fresh 30% NMP solution at each time point. The receiver solution collected was analyzed by HPLC to determine the concentration of testosterone. The cumulative amount of testosterone that permeated across the human cadaver skin was calculated using the measured testosterone concentrations in the receiver solutions, and the results were plotted versus time (FIG. 3).

Structures are written as SMILES.

`O=C(O)Cc1ccccc1Nc1c(Cl)cccc1Cl` [diclofenac, diclofenac sodium]: the “cumulative amount of diclofenac that permeated through the skin” value is on record as 2.41 mg/cm^2 in series [1] (PVPP powder added (Formulation B by Table 1)); 2.05 mg/cm^2 in series [1] (PVPP powder in combination with polyethylene oxide (Formulation C by Table 1)); 0.48 mg/cm^2 in series [1] (no PVPP powder added (Formulation D by Table 1)); 1.03 mg/cm^2 in series [1] (powdered starch, poly(acrylamide-acrylic acid) sodium salt instead of PVPP (Formulation A by Table 1)). Moreover, in series [1] (PVPP powder added vs no PVPP powder), the “cumulative amount of diclofenac permeated relative to absence of the powder” value is listed as “more than five times”.
As to `C[C@]12CC[C@H]3[C@@H](CCC4=CC(=O)CC[C@@]43C)[C@@H]1CC[C@@H]2O` [testosterone], the “cumulative amount of testosterone that permeated through the skin” value in series [2] (0.75 g PVPP powder added (Formulation J by Table 5)) was found to be 0.70 mg/cm^2; in series [2] (no PVPP powder added (Formulation I by Table 5)) it was 0.40 mg/cm^2. Further, in series [2] (0.75 g PVPP powder vs no PVPP powder), the “cumulative amount of testosterone permeated relative to absence of the powder” value is on record as “almost twice”.
